# How the values were obtained:
# Format in all cases: cell-based
# [1] = tested on: IgM production of human peripheral lymphocytes; assay: Suppressive effect on the antibody production of human lymphocytes: IgM; conditions: 10 days, ELISA
# Procedure: (§1) Experiment 5 Suppressive Effect on the Antibody Production of Human Lymphocytes
# (§2) 1) Human Peripheral Blood
# (§3) Human peripheral blood was drawn from healthy male adults by plastic syringes filled with heparin (final concentration 1.5%). Lymphocytes were collected immediately after blood was drawn.
# (§4) RPMI medium (Nissui Pharmaceutical Co., Ltd.) containing 10% fetal bovine serum (HyClone Lab.) inactivated at 56° C. for 30 minutes, penicillin (100 units/ml) and streptomycin (100 μg/ml) (GIBCO) was used. […]
# (§5) In 96-well cultivating plate (Sumitomo bakelite) the lymphocytes were inoculated 2×10^5 cells per well, and the compound, anti-human CD 40 antigen (Pharmingen, 2 μg/ml), human recombinant interleukin-4 (IL-4) (Genzyme, 0.1 μg/ml) and human recombinant interleukin-10 (IL-10) (Genzyme, 0.2 μg/ml) were added and cultivated at 37° C. under 5% of CO2 (0.2 ml/well). After the cultivation for 10 days, the amount of antibody in a supernatant was quantified by ELISA method.
# (§6) 7) Quantification of the IgG and IgM Antibodies
# (§7) ELISA method was used for the quantification. […] After washing three times with PBST, 100 μl of a sample diluted with PBS or 100 μl of human Plasma IgG standard solution or IgM standard solution (BioPur AG, Switzerland) of a pre-determined concentration was added and incubated at room temperature for 1 hour. […]
# [2] = tested on: C3H/HeN mouse splenocytes stimulated with Concanavalin A (Con A); assay: Suppressive effect on mitogenic activity of mouse splenocytes in vitro, Con A as mitogen (MTT); conditions: Con A 5 μg/ml as mitogen, 3 days
# Procedure: (§8) Experiment 1 Suppressive Effect on a Mitogenic Activity of Mouse Splenocytes In Vitro
# (§9) In 96-well microtiter plate 5×10^5 C3H/HeN mouse splenocytes suspended in 0.1 ml of 10% fetal bovine serum-fortified RPMI 1640 medium containing 2 mM of sodium bicarbonate, 50 units/ml of penicillin, 50 μg/ml of streptomycin and 5×10^−5 M of 2-mercaptoethanol were added. Then, 5 μg/ml of Concanavalin A (Con A) or 10 μg/ml of lipopolysaccharide (LPS) as a mitogen and the compound of a pre-determined concentration of the present invention were added to each well so that a final volume of each well reached 0.2 ml. Each compound of the present invention was dissolved in dimethylsulfoxide (DMSO) and diluted with the above RPMI 1640 medium to adjust the final concentration of 100 ng/ml or less. The splenocytes in the 96-well microtiter plate were cultivated at 37° C. for 3 days in an incubator keeping the humidity 100%, carbon dioxide 5% and air 95%. Then, 25 μl of 6 mg/ml MTT [3-(4,5-dimethylthiazol-2-yl)-2,5-diphenyltetrazolium bromide] (Sigma) was added to the each well and cultivated at 37° C. for 4 hours under the same conditions. After the cultivation, 50 μl of 0.02 N hydrochloric acid in 20% sodium dodecyl sulfate (SDS) was added to formazan generated and left at 37° C. for 24 hours for dissolving formazan. An absorption intensity (OD) of formazan generated in proportion to the number of living cells was measured with an immunoreader (InterMed) equipped with a 570 nm filter (The Journal of Immunological Method, 65, 55-63, 1983). The 50% inhibitory concentration of a cell proliferation (IC 50) was calculated from a correlation between the concentration of the compound of the present invention and the absorption intensity.
# [3] = tested on: IgG production of human peripheral lymphocytes; assay: Suppressive effect on the antibody production of human lymphocytes: IgG; conditions: 10 days, ELISA
# Procedure: as §1, §2, §3, §4, §5, §6, §7
# [4] = tested on: mouse thymoma strain EL4 cells; assay: Anti-proliferative activity on EL4 cells (MTT); conditions: 3 days
# Procedure: Experiment 2 Anti-Proliferative Activity on EL4 Cells
# In 96-well microtiter plate 4×10^4/0.1 ml of mouse thymoma strain EL4 cells were added and 0.1 ml of the compound of the present invention was added to the mixture so that the concentration was in the range of 0-5,000 ng/ml. After the cultivation for 3 days, the IC50 was calculated by the MTT method as described in Experiment 1.
# [5] = tested on: C3H/HeN mouse splenocytes stimulated with lipopolysaccharide (LPS); assay: Suppressive effect on mitogenic activity of mouse splenocytes in vitro, LPS as mitogen (MTT); conditions: LPS 10 μg/ml as mitogen, 3 days
# Procedure: as §8, §9
# [6] = tested on: IgE antibody production of human peripheral lymphocytes (anti-human CD 40, IL-4, IL-10); assay: Suppressive effect on the antibody production of human lymphocytes: IgE; conditions: 10 days, ELISA
# Procedure: as §1, §2, §3
# RPMI medium (Nissui Pharmaceutical Co., Ltd.) containing 10% fetal bovine serum (HyClone Lab.) inactivated at 56° C. for 30 minutes, penicillin (100 units/ml) and streptomycin (100 μg/ml) (GIBCO) was used.
# After the compound (I-839) of the present invention was dissolved in dimethylsulfoxide (Nakaraitesk) at […], the solution was diluted with the medium to adjust a final concentration to be 0.01 μg/ml −10 μg/ml. […]
# as §5
# 6) Quantification of the IgE Antibody
# A commercial kit MESACUP IgE test (Medical & Biological Laboratories Co., Ltd.) was used for the quantification of the IgE. […]
compound,measurement,setting,value
COc1cc(-c2ccc(O)cc2)c(OC)c(O)c1-c1ccc(OCC=C(Cl)Cl)c(O)c1 [Compound I-121],IC50 IgM,[1],>1 ng/mL
same,ConA IC50,[2],0.8 ng/mL
same,IC50 IgG,[3],<0.0001 ng/mL
same,EL-4 IC50,[4],0.8 ng/mL
same,LPS IC50,[5],1.2 ng/mL
same,IC50 IgE,[6],<0.0001 ng/mL

# From patent US7101915B1, “P-terphenyl compounds” (Shionogi & Co., Ltd., priority 1996, dated 2006)
